Measured values reported in ChEMBL document CHEMBL4811282, “Synthesis and biological evaluation of novel 2-alkoxycarbonylallylester phosphonium derivatives as potential anticancer agents” (Bioorg Med Chem Lett, 2021).
Activity calls are given as the source filed them. The calls are words filed in the database; no cut-off is given here.

Assays:
[1] = tested on: MCF7; test: Antiproliferative activity against human MCF7 cells assessed as inhibition of cell proliferation measured by MTT assay; format: functional, cell-based
[2] = tested on: MDA-MB-231; test: Antiproliferative activity against human MDA-MB-231 cells assessed as inhibition of cell proliferation measured by MTT assay; format: functional, cell-based
[3] = tested on: MIA PaCa-2; test: Antiproliferative activity against human MIA PaCa-2 cells assessed as inhibition of cell proliferation measured by MTT assay; format: functional, cell-based
[4] = tested on: WiDr; test: Antiproliferative activity against human WiDr cells assessed as inhibition of cell proliferation measured by MTT assay; format: functional, cell-based
[5] = tested on: 4T1; test: Antiproliferative activity against mouse 4T1 cells assessed as inhibition of cell proliferation measured by MTT assay; format: functional, cell-based
[6] = Antiproliferative activity against mouse 67NR cells assessed as inhibition of cell proliferation measured by MTT assay; format: functional, cell-based
[7] = tested on: MCF7; test: Antiproliferative activity against human MCF7 cells assessed as inhibition of cell proliferation measured by SRB assay; format: functional, cell-based
[8] = tested on: MDA-MB-231; test: Antiproliferative activity against human MDA-MB-231 cells assessed as inhibition of cell proliferation measured by SRB assay; format: functional, cell-based
[9] = tested on: MIA PaCa-2; test: Antiproliferative activity against human MIA PaCa-2 cells assessed as inhibition of cell proliferation measured by SRB assay; format: functional, cell-based
[10] = tested on: WiDr; test: Antiproliferative activity against human WiDr cells assessed as inhibition of cell proliferation measured by SRB assay; format: functional, cell-based
[11] = tested on: 4T1; test: Antiproliferative activity against mouse 4T1 cells assessed as inhibition of cell proliferation measured by SRB assay; format: functional, cell-based
[12] = Antiproliferative activity against mouse 67NR cells assessed as inhibition of cell proliferation measured by SRB assay; format: functional, cell-based
[13] = Cytotoxicity against human HDFa cells assessed as inhibition of cell proliferation; format: cell-based
[14] = Toxicity against CD-1 mouse assessed as changes in grooming pattern at 10 mg/kg for 6 days per week measured after 14 days; format: organism-based; settings: in vivo, 336 h, time 14 day
[15] = Toxicity against CD-1 mouse assessed as changes in body weight at 10 mg/kg for 6 days per week measured after 14 days; format: organism-based; settings: in vivo
[16] = tested on: 4T1; test: Induction of mitochondrial stress in mouse 4T1 cells assessed as decrease in mitochondrial respiration in presence of oligomycin/FCCP/antimycin A/rotenone by seahorse XFe96 analyser based assay; format: functional, cell-based; settings: dose 0.625-10 µM
[17] = tested on: 4T1; test: Induction of mitochondrial stress in mouse 4T1 cells assessed as proton leak across mitochondrial inner membrane in presence of oligomycin/FCCP/antimycin A/rotenone by seahorse XFe96 analyser based assay; format: functional, cell-based; settings: dose 0.625-10 µM
[18] = tested on: 4T1; test: Induction of mitochondrial stress in mouse 4T1 cells assessed as decrease in ATP production in presence of oligomycin/FCCP/antimycin A/rotenone by seahorse XFe96 analyser based assay; format: functional, cell-based; settings: dose 0.625-10 µM
[19] = tested on: MDA-MB-231; test: Induction of mitochondrial stress in human MDA-MB-231 cells assessed as decrease in mitochondrial respiration at 0.625 to 10 uM in presence of oligomycin/FCCP/antimycin A/rotenone by seahorse XFe96 analyser based assay; format: functional, cell-based; settings: dose 0.625-10 µM
[20] = tested on: MDA-MB-231; test: Induction of mitochondrial stress in human MDA-MB-231 cells assessed as proton leak across mitochondrial inner membrane in presence of oligomycin/FCCP/antimycin A/rotenone by seahorse XFe96 analyser based assay; format: functional, cell-based; settings: dose 0.3125-10 µM
[21] = tested on: MDA-MB-231; test: Induction of mitochondrial stress in human MDA-MB-231 cells assessed as decrease in ATP production at 0.3125 to 10 uM in presence of oligomycin/FCCP/antimycin A/rotenone by seahorse XFe96 analyser based assay; format: functional, cell-based; settings: dose 0.3125-10 µM
[22] = tested on: 4T1; test: Induction of mitochondrial stress in mouse 4T1 cells assessed as effect on spare respiratory capacity at 5 to 10 uM in presence of oligomycin/FCCP/antimycin A/rotenone by seahorse XFe96 analyser based assay; format: functional, cell-based; settings: dose 5-10 µM

| SMILES | IC50 [1] | IC50 [2] | IC50 [3] | IC50 [4] | IC50 [5] | IC50 [6] | further results |
| --- | --- | --- | --- | --- | --- | --- | --- |
| C=C(C[P+](c1ccc(OC)cc1)(c1ccc(OC)cc1)c1ccc(OC)cc1)C(=O)OC | 2780 nM | 4.87 µM | 3600 nM | 1620 nM | 1.85 µM | 10.6 µM |  |
| COC(=O)/C(=C/c1ccc(Cl)cc1)C[P+](c1ccc(OC)cc1)(c1ccc(OC)cc1)c1ccc(OC)cc1 | 1370 nM | 3.01 µM | 590 nM | 1320 nM | 0.98 µM |  |  |
| C=C(C[P+](c1ccc(C)cc1)(c1ccc(C)cc1)c1ccc(C)cc1)C(=O)OC | 2430 nM | 3.79 µM | 2660 nM | 1480 nM | 1.78 µM | 5.34 µM |  |
| C=C(C[P+](c1ccccc1)(c1ccccc1)c1ccccc1)C(=O)OC(C)(C)C | 1990 nM | 2.88 µM | 2870 nM | 2080 nM | 2.76 µM | 7.57 µM |  |
| COC(=O)/C(=C/c1ccc(Br)cc1)C[P+](c1ccc(OC)cc1)(c1ccc(OC)cc1)c1ccc(OC)cc1 | 1240 nM | 1.91 µM | 730 nM | 900 nM | 1.21 µM | 2.9 µM | IC50 [7]: 170 nM; IC50 [8]: 940 nM; IC50 [9]: 290 nM; IC50 [10]: 810 nM; IC50 [11]: 1250 nM; IC50 [12]: 1780 nM |
| COC(=O)/C(=C/c1ccc(OC)cc1)C[P+](c1ccc(OC)cc1)(c1ccc(OC)cc1)c1ccc(OC)cc1.[Br-] | 1400 nM | 3.7 µM | 1370 nM | 1140 nM | 3.36 µM | 4.59 µM | IC50 [7]: 170 nM; IC50 [8]: 2190 nM; IC50 [9]: 310 nM; IC50 [10]: 760 nM; IC50 [11]: 1830 nM; IC50 [12]: 2560 nM; IC50 [13]: 23.9 µM; Activity [14]: Non-Toxic; Activity [15]: Non-Toxic |
| COC(=O)/C(=C/c1ccc(C#N)cc1)C[P+](c1ccc(OC)cc1)(c1ccc(OC)cc1)c1ccc(OC)cc1 | 4490 nM | 12.5 µM | 7860 nM | 4870 nM | 20.4 µM | > 100 µM |  |
| COc1ccc([P+](C/C(=C\c2ccc(Br)cc2)C(=O)OC(C)(C)C)(c2ccc(OC)cc2)c2ccc(OC)cc2)cc1 | 640 nM | 2.1 µM | 360 nM | 950 nM | 0.86 µM | 0.62 µM | IC50 [7]: 63 nM; IC50 [8]: 580 nM; IC50 [9]: 200 nM; IC50 [10]: 140 nM; IC50 [11]: 500 nM; IC50 [12]: 470 nM; Activity [16]: Dose-Dependent Effect; Activity [17]: Dose-Dependent Effect; Activity [18]: Dose-Dependent Effect; Activity [19]: Active; Activity [20]: Dose-Dependent Effect; Activity [21]: Active; IC50 [13]: 5.5 µM; Activity [22]: Active |
| COC(=O)/C(=C/c1ccc(C)cc1)C[P+](c1ccc(OC)cc1)(c1ccc(OC)cc1)c1ccc(OC)cc1 | 7470 nM | 9.79 µM | 340 nM | 2580 nM | 5.23 µM | 2.78 µM |  |
| C=C(C[P+](c1ccc(OC)cc1)(c1ccc(OC)cc1)c1ccc(OC)cc1)C(=O)OC(C)(C)C | 980 nM | 2.69 µM | 1390 nM | 810 nM | 1.08 µM | 2.17 µM |  |
| C=C(C[P+](c1ccccc1)(c1ccccc1)c1ccccc1)C(=O)OC | 19900 nM | 28.9 µM | 27400 nM | 7740 nM | 14.8 µM | 58.4 µM |  |
| COC(=O)/C(=C/c1ccccc1)C[P+](c1ccc(OC)cc1)(c1ccc(OC)cc1)c1ccc(OC)cc1 | 2670 nM | 9.27 µM | 4590 nM | 2740 nM | 7.2 µM | 4.87 µM |  |
| COC(=O)/C(=C/c1ccc([N+](=O)[O-])cc1)C[P+](c1ccc(OC)cc1)(c1ccc(OC)cc1)c1ccc(OC)cc1 | 8830 nM | 8.29 µM | 5590 nM | 5950 nM | 4.73 µM | 28.7 µM |  |
| C=C(C[P+](c1ccc(F)cc1)(c1ccc(F)cc1)c1ccc(F)cc1)C(=O)OC | 47000 nM | 91.1 µM | 100000 nM | 19000 nM | 61.9 µM | 73.9 µM |  |
| C=C(C[P+](c1ccccc1)(c1ccccc1)c1ccccc1)C(=O)N(C)C | > 100000 nM | > 100 µM | > 100000 nM | 81200 nM | > 100 µM | > 100 µM |  |
| COC(=O)/C(=C/c1ccc(F)cc1)C[P+](c1ccc(OC)cc1)(c1ccc(OC)cc1)c1ccc(OC)cc1 | 1420 nM | 7.41 µM | 1290 nM | 2140 nM | 4.57 µM | 5.14 µM |  |
